Key:
Sulindac + Vorinostat = compound: CC1=C(CC(=O)O)c2cc(F)ccc2/C1=C\c1ccc([S+](C)[O-])cc1 [Sulindac] + O=C(CCCCCCC(=O)Nc1ccccc1)NO [Vorinostat] (partner 1 µM); assay: relative viability (nuclei count vs DMSO), 5 days (fraction); higher = more cells survive
Method in brief: (§1)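 Lung cancer cell lines, seeded in 1536-well plates, were treated the following day by pin tool with a single drug or with five library-drug doses (not always all listed) in √10 steps on top of a fixed anchor-drug dose. Cells were fixed and nuclei stained in one step after 5 days, and nuclei were counted. Relative viability is the nuclei count for treated wells divided by that for vehicle wells, reported as medians of duplicate plates.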

[1] = compound: CN[C@@H]1C[C@H]2O[C@@](C)([C@@H]1OC)n1c3ccccc3c3c4c(c5c6ccccc6n2c5c31)C(=O)NC4 [Staurosporine] + O=C(CCCCCCC(=O)Nc1ccccc1)NO [Vorinostat] (partner 1 µM); assay: as above
Method in brief: as §1

Cell Line	relative viability (Sulindac + Vorinostat; first compound 0.08 µM)	relative viability (Sulindac + Vorinostat; first compound 0.253 µM)	relative viability (Sulindac + Vorinostat; first compound 0.8 µM)	relative viability (Sulindac + Vorinostat; first compound 2.53 µM)	relative viability (Sulindac + Vorinostat; first compound 8 µM)	relative viability ([1]; first compound 0.005 µM)	relative viability ([1]; first compound 0.01581 µM)	relative viability ([1]; first compound 0.05 µM)	relative viability ([1]; first compound 0.1581 µM)	relative viability ([1]; first compound 0.5 µM)
RERF-LC-KJ	0.687	0.823	0.597	0.78	0.734	0.599	0.403	0.302	0.197	0.224
SK-LU-1	0.877	0.901	0.74	0.722	0.874	0.265	0.206	0.179	0.164	0.148
SK-MES-1	1.43	1.25	1.09	1.23	1.16	0.47	0.27	0.18	0.154	0.127
SW 900	0.553	0.47			0.578	0.294	0.15	0.171	0.146	0.0929
SW 1573	0.777	0.95	0.585	0.683	1.11	0.811	0.391	0.152	0.0813	0.0557
